From patent US11292773B2, “Small molecule inhibitors of BCL-2-associated death promoter (BAD) phosphorylation” (NATIONAL UNIVERSITY OF SINGAPORE, priority 2017, dated 2022) come the findings set out here.

Experiment [1] deals with T1, hBAD phosphorylation (Ser75, Ser99) (Homo sapiens, UniProt Q92934).
T1 construct: endogenous in cells; host or cells: MCF7 (A6); 25 carcinoma cell lines of seven cancer types (A7)
T1 sequence (Q92934 1-168): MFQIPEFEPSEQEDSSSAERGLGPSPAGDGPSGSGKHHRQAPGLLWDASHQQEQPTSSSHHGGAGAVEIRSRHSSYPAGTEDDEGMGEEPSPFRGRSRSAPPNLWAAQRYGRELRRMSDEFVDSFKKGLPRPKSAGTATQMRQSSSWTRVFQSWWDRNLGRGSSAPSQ
Put plainly: Western blot of hBAD Ser75 and Ser99 phosphorylation in 25 carcinoma cell lines. Format: cell-based. The settings on record: all tested carcinoma cell lines, NPB 5 μM. The procedure:
(§1) (A) WB analysis was used to assess the levels of phosphorylated human BAD (at Ser75 and Ser99) and BAD protein in the range of carcinoma cell lines, including mammary, ovarian, pancreatic, endometrial, hepatocellular, colon and prostate cancer after treatment with NPB (5 μM). Total BAD was used as an input control for cell lysate. (B) WB analysis was used to assess the levels of pBAD (Ser99) and pAKT (Ser473), AKT and BAD in MCF7, Caov-3, Ishikawa, and AsPC-1 cells. 5 μM each of AKT inhibitor (IV) and NPB was used to treat cells. Depletion of AKT expression was achieved using transient-transfection of short hairpin (sh)-RNA (1&2) directed to AKT transcript as described in methodology. β-ACTIN was used as an input control for cell lysate. For WB analysis, soluble whole cell extracts were run on an SDS-PAGE and immunoblotted as described in materials methodology. The sizes of detected protein bands in kDa are shown on the left side. Note: #; non-transformed immortalized-cell line.
We next analyzed the effect of NPB on phosphorylation of hBAD at both Ser75 and Ser99 by western blot analysis in 25 carcinoma cell lines derived seven different types of cancer.
(Immunoblotting shows a protein as a band on a membrane.)

A further experiment relates to AKT. Put plainly: Western blot of pAKT (Ser473), AKT, pBAD (Ser99) and BAD in carcinoma cell lines. The settings on record: MCF7, Caov-3, Ishikawa, AsPC-1. In kind it is cell-based, human. On the set-up: dose or concentration left out as unconfirmed. On the procedure: as §1, with “5 μM each of AKT inhibitor (IV) and NPB was used to treat cells.” left out
The upstream AKT Ser/Thr kinase regulates the phosphorylation of hBAD at Ser99 [13]. We therefore determined whether NPB inhibits the phosphorylation of hBAD (Ser99) via modulation of the activity of AKT (as indicated by phosphorylation of Ser473) using western blot analysis. We observed no change in the levels of pAKT or levels of total AKT protein after exposure of four different carcinoma cells lines (MCF7, Caov-3, Ishikawa, and AsPC-1) to 10 μM NPB. […]

Experiment [2] deals with various kinases in MCF7 cells. Put plainly: Human Phospho-Kinase Antibody Array. Format: cell-based. As to conditions: NPB 10 μM, 12 h, vs DMSO. The procedure:
(A) Western blot analysis was used to assess the level of BAD Ser99 phosphorylation of pBAD, BAD, pAKT, and AKT in MCF7 cells after an increasing period of treatment with NPB (10 μM). Soluble whole cell extracts were run on an SDS-PAGE and immunoblotted as described in methodology. The sizes of detected protein bands in kDa are shown on the left side. (B) Kinases and phosphorylated substrates were detected using a Western Blot array (Proteome Profiler Human Phospho-Kinase Array Kit. MCF7 cells treated with NPB (10 μM) or DMSO for 12 h at 37° C. before preparation of cell lysate. Mean pixel density was analysed using ImageJ software and is represented below.
To elucidate the possibility that NPB decreased hBAD Ser99 phosphorylation by modulation of kinase activity, we assessed the effects of NPB on various kinases using Human Phospho-Kinase Antibody Array Kit from R&D Systems.

Take `O=C(NC1CCCC1)c1cccc(C(c2ccccc2O)N2CCN(c3cccc(Cl)c3Cl)CC2)c1` (centres unmarked) [NPB, N-cyclopentyl-3-((4-(2,3-dichlorophenyl)piperazin-1-yl)(2-hydroxyphenyl)methyl) benzamide]: in experiment [1], the “phosphorylation of BAD at the Ser99 site” value is on record as “largely inhibits” and the “phosphorylation of hBAD at the Ser75 site” value is given as “no effect”. Moreover, in the experiment with AKT, the “BAD phosphorylation at the Ser99 site” value is “inhibition” and the “levels of pAKT or total AKT protein” value is “no change”. For the same molecule, the “kinase activity or phosphorylated substrates” value in experiment [2] is listed as “No significant changes”.
